Values joined by “and” are separate entries in the source; they are usually repeats but may differ in a detail not shown here. Equal entries are not always repeated. Marks after values point to notes of the source that are not given here.
Test system: anti collagen antibodies induced arthritis (ACAIA)
Assay: Anti collagen antibodies induced arthritis (ACAIA) in mice, intra-articular treatment: paw thickness, arthritis clinical score, body weight;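 note: mouse arthritis induced by IV anti-collagen mAb on day 0 plus IP LPS on day 4, with body weight, caliper paw thickness and 0-4 paw score tracked against a day 0 baseline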
Details: for Clinical score of treated leg (Avg.) / Paw thickness Avg. Delta untreated -treated / Paw thickness of treated leg (Avg.) / Paw thickness of untreated leg (Avg.) / Percent change of weight per day (Av) / Percent change of weight per day (individual animal) / Δ clinical score untreated -treated, Avg. Delta: 10 mg/kg IA (Group 2)
[1] = BETi1 0.01 mg/kg IA (Group 5), Av
[2] = BETi1 0.01 mg/kg IA (Group 5), individual animals, 0.01 mg/kg
[3] = BETi1 0.1 mg/kg IA (Group 4), Av

Cn1cc(-c2cccc(O)c2Oc2ccccc2)c2cc[nH]c2c1=O [BETi1]
Clinical score of treated leg (Avg.) (Baseline): 0.00 points | Paw thickness Avg. Delta untreated -treated (Baseline): −0.05 mm | Paw thickness of treated leg (Avg.) (Baseline): 2.12 mm | Paw thickness of untreated leg (Avg.) (Baseline): 2.07 mm | Percent change of weight per day (Av) (Baseline): 100.00% | Percent change of weight per day (individual animal) (Baseline): 100% | Δ clinical score untreated -treated, Avg. Delta (Baseline): 0.00 points | Clinical score of treated leg (Avg.) (Day 3): 0.00 points | Paw thickness Avg. Delta untreated -treated (Day 3): −0.01 mm | Paw thickness of treated leg (Avg.) (Day 3): 2.16 mm | Paw thickness of untreated leg (Avg.) (Day 3): 2.15 mm | Percent change of weight per day (Av) (Day 3): 100.21% | Percent change of weight per day (individual animal) (Day 3): 99.5% and 99.54% and 102.4038% and 101.3825% and 100.4673% and 98.1982% and 100% | Δ clinical score untreated -treated, Avg. Delta (Day 3): 0.00 points | Clinical score of treated leg (Avg.) (Day 4): 0.00 points | Paw thickness Avg. Delta untreated -treated (Day 4): −0.04 mm | Paw thickness of treated leg (Avg.) (Day 4): 2.24 mm | Paw thickness of untreated leg (Avg.) (Day 4): 2.20 mm | Percent change of weight per day (Av) (Day 4): 100.95% | Percent change of weight per day (individual animal) (Day 4): 100% and 99.07% and 102.8846% and 103.2258% and 100.9346% and 98.65% and 101.8779% | Δ clinical score untreated -treated, Avg. Delta (Day 4): 0.00 points | Clinical score of treated leg (Avg.) (Day 5): 0.00 points | Paw thickness Avg. Delta untreated -treated (Day 5): 0.01 mm | Paw thickness of treated leg (Avg.) (Day 5): 2.16 mm | Paw thickness of untreated leg (Avg.) (Day 5): 2.17 mm | Percent change of weight per day (Av) (Day 5): 92.17% | Percent change of weight per day (individual animal) (Day 5): 91.58% and 93.06% and 92.79% and 94.86% and 89.64% and 91.08% | Δ clinical score untreated -treated, Avg. Delta (Day 5): 0.00 points | Clinical score of treated leg (Avg.) (Day 6): 0.00* points | Paw thickness Avg. Delta untreated -treated (Day 6): 0.34*** mm | Paw thickness of treated leg (Avg.) (Day 6): 2.17*** mm | Paw thickness of untreated leg (Avg.) (Day 6): 2.51 mm | Percent change of weight per day (Av) (Day 6): 92.02% | Percent change of weight per day (individual animal) (Day 6): 93.56% and 91.67% and 92.31% and 91.1215% and 91.89% and 91.5493% | Clinical score of treated leg (Avg.) (Day 7): 0.50* points | Paw thickness Avg. Delta untreated -treated (Day 7): 0.77*** mm | Paw thickness of treated leg (Avg.) (Day 7): 2.23** mm | Paw thickness of untreated leg (Avg.) (Day 7): 3.00 mm | Percent change of weight per day (Av) (Day 7): 91.86% | Percent change of weight per day (individual animal) (Day 7): 92.57% and 89.81% and 93.75% and 91.59% and 91.44% and 92.02% | Clinical score of treated leg (Avg.) (Day 8): 0.83 points | Paw thickness Avg. Delta untreated -treated (Day 8): 1.04*** mm | Paw thickness of treated leg (Avg.) (Day 8): 2.18** mm | Paw thickness of untreated leg (Avg.) (Day 8): 3.22 mm | Percent change of weight per day (Av) (Day 8): 90.62% | Percent change of weight per day (individual animal) (Day 8): 92.08% and 88.89% and 94.23% and 87.85% and 90.99% and 89.67% | Clinical score of treated leg (Avg.) (Day 10): 0.17* points | Paw thickness Avg. Delta untreated -treated (Day 10): 1.27 mm | Paw thickness of treated leg (Avg.) (Day 10): 2.14** mm | Paw thickness of untreated leg (Avg.) (Day 10): 3.41 mm | Percent change of weight per day (Av) (Day 10): 91.54% | Percent change of weight per day (individual animal) (Day 10): 90.59% and 88.89% and 95.19% and 91.59% and 92.34% and 90.61% | Clinical score of treated leg (Avg.) (Day 12): 0.67 points | Paw thickness Avg. Delta untreated -treated (Day 12): 1.32 mm | Paw thickness of treated leg (Avg.) (Day 12): 2.17 mm | Paw thickness of untreated leg (Avg.) (Day 12): 3.48 mm | Percent change of weight per day (Av) (Day 12): 94.92% | Percent change of weight per day (individual animal) (Day 12): 95.54% and 93.98% and 98.08% and 92.99% and 95.05% and 93.9% | Δ clinical score untreated -treated, Avg. Delta (Day 12): 2.67 points | Δ clinical score untreated -treated, Avg. Delta (Day 6, * p < 0.05 vs. Vehicle): 0.83* points | Δ clinical score untreated -treated, Avg. Delta (Day 7, * p < 0.05 vs. Vehicle): 1.33* points | Δ clinical score untreated -treated, Avg. Delta (Day 8, * p < 0.05 vs. Vehicle): 2.17* points | Δ clinical score untreated -treated, Avg. Delta (Day 10, * p < 0.05 vs. Vehicle): 2.83* points | reduction of arthritis score, treated vs untreated paw (10 mg/kg IA, day 12): 79.9% | reduction of paw thickness, treated vs untreated paw (10 mg/kg IA, day 12): 37.6% | Weight per day, Baseline [1]: 20.6 g | Weight per day, Day 3 [1]: 20.4 g | Weight per day, Day 4 [1]: 19.9 g | Weight per day, Day 5 [1]: 18.5 g | Weight per day, Day 6 [1]: 18.1 g | Weight per day, Day 7 [1]: 18.9 g | Weight per day, Day 8 [1]: 18.5 g | Weight per day, Day 10 [1]: 18.4 g | Weight per day, Day 12 [1]: 19.1 g | Weight per day, Baseline [2]: 21 g (2×) and 20.9 g and 21.5 g and 21.4 g and 19.4 g and 18.7 g | Weight per day, Day 3 [2]: 20.8 g and 20.6 g and 21.6 g and 20.9 g and 19.3 g and 18.8 g and 21 g | Weight per day, Day 4 [2]: 21.1 g and 20.8 g and 20.9 g and 21.6 g and 17.4 g and 17.8 g and 19.6 g | Weight per day, Day 5 [2]: 19.5 g and 18.7 g and 19.1 g and 20.2 g and 16.6 g and 16.8 g and 18.4 g | Weight per day, Day 6 [2]: 19.1 g and 19 g and 18.6 g and 19.9 g and 15.6 g and 16.5 g and 18.1 g | Weight per day, Day 7 [2]: 19.4 g and 19.3 g and 18.9 g and 20 g and 16 g and 19.9 g and 18.5 g | Weight per day, Day 8 [2]: 19.3 g and 19.7 g and 18.9 g and 20.1 g and 16 g and 16.9 g and 18.5 g | Weight per day, Day 10 [2]: 19.6 g and 19.5 g (2×) and 18.3 g and 16.2 g and 17.4 g and 18.6 g | Weight per day, Day 12 [2]: 19.9 g and 20 g (2×) and 19.1 g and 16.9 g and 18.2 g and 19.3 g | Weight per day, Baseline [3]: 20.4 g | Weight per day, Day 3 [3]: 20.6 g | Weight per day, Day 4 [3]: 20.3 g

From US20250339409A1, “USES OF PAN BET INHIBITORS” (VYNE THERAPEUTICS INC., priority 2021, published 2025)
